Experimental data: patent US11407811B2, “Fusion protein, preparation method therefor and use thereof” (JIANGSU RONGTAI BIOTECH CO., LTD., priority 2017, dated 2022)

Tests used:
[1] = system: human umbilical vein endothelial cells (HUVEC); assay: Three-dimensional transwell assay, migration of HUVEC; type: cell-based; settings: dose 8.0 · 10^−6 μg/mL
Protocol: Human umbilical vein endothelial cells (HUVECs) were cultured with endothelial cell culture fluid containing 5% fetal bovine serum and 1×ECGS in a 5% CO2 incubator at 37° C., to a confluence of 90% or more, and then inhibitory effects of fusion protein I, protein II, protein III, protein IV, and protein V on migration of endothelial cells were detected by transwell assay, in which only endothelial cells HUVEC of passage 2 to 8 were used, and the specific operation was as follows.
(1) 10 mg/mL Matrigel was diluted with a DMEM medium at a ratio of 1:4, coated on a transwell chamber membrane, and air-dried at room temperature.
(2) HUVEC cells cultured to logarithmic phase were digested with 0.2% EDTA, collected, washed twice with PBS, followed by resuspended in an endothelial cell culture liquid containing 0.1% BSA, counted under a microscope, and the cell concentration was adjusted to 1×10^5 cells/mL;
(3) Test solutions for each group were formulated and diluted to 100 μL with a cell culture liquid containing 0.1% BSA;
Groups were divided as follows:
Blank control group: a cell culture liquid containing no drug;
Endostar group: 5 mg/mL Endostar solution diluted to a predetermined concentration with a cell culture liquid containing no drug; […]
(4) The cells were inoculated into a transwell chamber at 100 μL per well, and test solutions for each group were added to the chamber. To a 24-well plate, 0.6 mL of endothelial cell culture liquid containing 5% fetal bovine serum and 1×ECGS was added to stimulate cell migration, and incubated at 5% CO2 for 24 h at 37° C.
(5) The culture liquid in the well was discarded. The cells were fixed with 90% alcohol at room temperature for 30 min, stained with 0.1% crystal violet for 10 min at room temperature, and rinsed with water. Un-migrated cells in the upper layer were gently wiped off by a cotton swab. The observation was carried out under microscope and four fields of view were selected for taking photos and counting. The migration inhibition (MI) was calculated according to the formula: […]
where Ntest is the migration cell number in the test group, and Ncontrol is the migration cell number in the blank control group.
The test was repeated 3 times independently. The results obtained from the test were calculated as mean±SD, and statistical t-test was performed. P<0.05 was considered as a significant difference, and P<0.01 was considered as an extremely significant difference.

[2] = system: adjuvant arthritis in rat; assay: Chronic inflammation of adjuvant arthritis in rat; type: in vivo; design: key to Clinical score Whole body: sum of hind/fore foot, ear, nose, tail scores; full score 8
Protocol: 80 SPF SD rats were randomly divided into 8 groups. Rats in each group were lightly anesthetized with ether. Then, 0.1 mL of complete Freund's adjuvant containing inactivated Mycobacterium tuberculosis was injected subcutaneously into the left hind foot of the rats. Primary arthritis occurred in the left hind foot of the rat, and at about 13 days post-modeling, secondary arthritis occurred in the right hind foot. A blank control group was injected with an equal volume of physiological saline. The drug was administered 13 days after modeling. A methotrexate group was administered by injection every 5 days for 15 days, 4 times in total; the fusion protein I, protein II, protein III, protein IV, and protein V at high, medium and low doses (128 mg/kg, 32 mg/kg, 8 mg/kg) were administered by injection every 5 days for 15 days.
Using a foot volume measuring method, a marker was made with a fat-soluble marker at the left and right posterior ankle joint of each rat, and the left and right hind feet of the animal were respectively immersed in the volume measuring device. The immersion depth was bounded by the marker, and the reading value at the scale pipette of the device was the initial volume of the animal's left and right hind feet.
The day of modeling was considered as the 0th day and recorded as d0. The volume of the left hind foot (modeling foot) was measured from the first day d1 after modeling every 2 days. When the swelling occurred (i.e., secondary arthritis occurred) at the contralateral non-inflammatory foot (right hind foot), the administration was started. The volume of the left and right hind feet was measured every 2 days, and the degree of primary and secondary toe swelling was determined, which was calculated as follows:
Primary toe swelling (mL)=left hind foot volume on the day of measurement-initial volume of left hind foot
Secondary toe swelling (mL)=right hind foot volume on the day of measurement-initial volume of right hind foot 2. Clinical score
Systemic score: the systemic score was taken every 2 days after the onset of secondary inflammation.
Hind foot: no swelling=0 score, one hind foot swelling=1 score, two hind feet swelling=2 scores;
Forefoot: no swelling=0 score, one forefoot swelling=1 score, two forefeet swelling=2 scores;
Ear: no redness and nodules=0 score, redness or nodules in one ear=1 score, redness and nodules in both ears=2 scores;
Nose: no swelling=0 score, obvious swelling=1 score;
Tail: no nodules=0 score, with nodules=1 score; full score was 8 scores.
Arthritis index score: the arthritis index score was performed every 2 days after the onset of secondary inflammation.
The initial body weight of each group of rats was weighed before modeling. The body weight was measured every 2 days from d1 after modeling, from which the initial body weight was subtracted to obtain the weight gain of each group of rats.

[3] = system: melanoma cell line B16F10; assay: MTT assay, proliferation of melanoma cell B16F10; type: cell-based; settings: dose 5 μg/mL
Protocol: (§1) The MTT assay was used to detect the inhibitory effect of the integrin blocker fusion protein obtained in Example 1 on the proliferation of various tumor cells, including melanoma cell B16F10, gastric cancer cell MGC-803, lung cancer cell A549, liver cancer cell Hep-G2, breast cancer cell MDA-MB-231, colon cancer cell HCT-116, human glioma U87, and cervical cancer cell Hela.
(§2) The tumor cells were cultured in a 5% CO2 incubator at 37° C. to a density of 90% or more, and collected by trypsinization. The cells were resuspended in the culture liquid and counted under a microscope. The cell concentration was adjusted to 3.0×10^4 cells/mL. The cell suspension was inoculated into a 96-well plate at 100 μL per well and cultured overnight in a 5% CO2 incubator at 37° C. […] After the cells were fully adhered, each dilution was added to a 96-well plate at 100 μL per well, respectively. […] 20 μL of 5 mg/mL MTT was added to each well of a 96-well plate, and incubation was continued for 4 hours. The medium was aspirated and 100 μL of DMSO per well were added to dissolve. The absorbance was measured at 570 nm with a microplate reader with a reference wavelength of 630 nm, and the proliferation inhibition (PI) was calculated. The formula is as follows: […]
(§3) where Ntest is the OD value of the test group and Ncontrol is the OD value of the blank control group.
(§4) The test was repeated 5 times independently. The results obtained from the test were calculated as mean±SD, and statistical t-test was performed. P<0.05 was considered as a significant difference, and P<0.01 was considered as an extremely significant difference.

[4] = system: gastric cancer cell MGC-803; assay: MTT assay, proliferation of gastric cancer cell MGC-803; type: cell-based; settings: dose 5 μg/mL
Protocol: as §1, §2, §3, §4

lung cancer cell A549 = assay: MTT assay, proliferation of lung cancer cell A549; type: cell-based; settings: dose 5 μg/mL
Protocol: as §1, §2, §3, §4

liver cancer cell Hep-G2 = assay: MTT assay, proliferation of liver cancer cell Hep-G2; type: cell-based; settings: dose 5 μg/mL
Protocol: as §1, §2, §3, §4

[5] = system: breast cancer cell MDA-MB-231; assay: MTT assay, proliferation of breast cancer cell MDA-MB-231; type: cell-based; settings: dose 5 μg/mL
Protocol: as §1, §2, §3, §4

[6] = system: colon cancer cells HCT-116; assay: MTT assay, proliferation of colon cancer cell HCT-116; type: cell-based; settings: dose 5 μg/mL
Protocol: as §1, §2, §3, §4

human glioma U87 = assay: MTT assay, proliferation of human glioma U87; type: cell-based; settings: dose 5 μg/mL
Protocol: as §1, §2, §3, §4

[7] = system: cervical cancer cell Hela; assay: MTT assay, proliferation of cervical cancer cell Hela; type: cell-based; settings: dose 5 μg/mL
Protocol: as §1, §2, §3, §4

[8] = system: human retinal vascular endothelial cell (HRCEC); assay: MTT assay, proliferation of human retinal vascular endothelial cell (HRCEC); type: cell-based; settings: 5 μg/mL (positive control), 48 hours
Protocol: The activity of the integrin blocker polypeptide to inhibit proliferation of human retinal vascular endothelial cells was examined by MTT assay. HRCEC cells were cultured in a 5% CO2 incubator at 37° C. to a density of 90% or more, and then collected by trypsinization. The cells were resuspended in the culture liquid and counted under a microscope. The cell concentration was adjusted to 3.0×10^4 cells/mL. The cell suspension was inoculated into a 96-well plate at 100 μL per well and cultured in a 5% CO2 incubator at 37° C. overnight. […] After the cells were fully adhered, each dilution was added to a 96-well plate at 100 μL per well, respectively. […] 20 μL of 5 mg/mL MTT was added to each well of a 96-well plate, and incubation was continued for 4 hours. The medium was aspirated and 100 μL of DMSO was added per well for dissolution. The absorbance was measured at 570 nm with a microplate reader with a reference wavelength of 630 nm, and the proliferation inhibition (PI) was calculated. The formula was as follows: […]
as §3
The test was repeated 5 times independently. The results obtained from the test were calculated as mean±SD, and statistical t-test was performed. P<0.05 was considered as significant difference, and P<0.01 was considered as extremely significant difference.

[9] = system: xylene-induced ear swelling in mice; assay: Xylene-induced ear swelling in mice; type: in vivo; settings: 200 mg/kg (positive control)
Protocol: 80 Kunming mice were divided into 8 groups with 10 mice for each group and numbered. A physiological saline group was used as a blank control group, an aspirin group (200 mg/kg) was used as a positive control group, and fusion protein I, protein II, protein III, protein IV and protein V at high, medium and low doses (128, 32, 8 mg/kg) were used as experimental groups. Mice were administered once by injection, while EDSM needed to be administered twice a day for 5 consecutive days. The blank control group was given an equal volume of physiological saline. After the fifth day, 0.05 mL of xylene was applied to both sides of the right ears of the mice to induce inflammation, and the left ears were not applied and were normal ears. After 2 h, the mice were sacrificed by dislocation, and the ears were cut along the auricle. Ear pieces were taken with a puncher and weighed, and the swelling degree and swelling rate were calculated. Swelling degree=right ear piece weight-left ear piece weight, swelling rate=(swelling degree/left ear piece weight)×100%.

In the case of CCN(CC)CCNC(=O)c1c(C)[nH]c(/C=C2\C(=O)Nc3ccc(F)cc32)c1C [Sunitinib, reference compound], the “MI (%)” value [1] is reported as 82.13% and the Migration cell number [1] is reported as 449.0 ± 153.86.

With CN(Cc1cnc2nc(N)nc(N)c2n1)c1ccc(C(=O)N[C@@H](CCC(=O)O)C(=O)O)cc1 [methotrexate, reference compound] the Weight gain ([2]; 1 mg/kg (positive drug)) was 47.32 ± 17.20 g, the “Clinical score Whole body” value ([2]; 1 mg/kg (positive drug), full score 8) was 1.31 ± 0.17 and the “Foot swelling degree Left” value ([2]; 1 mg/kg (positive drug), left hind foot (primary inflammation)) was 1.19 ± 0.20 mL. The “Clinical score Arthritis index” value ([2]; 1 mg/kg (positive drug), maximum score 16) was 2.00 ± 0.54, the “Foot swelling degree Right” value ([2]; 1 mg/kg (positive drug), right foot (secondary inflammation)) was 1.22 ± 0.13 mL and the “therapeutic effect on primary arthritis (primary toe swelling degree)” value ([2]; methotrexate group, injection every 5 days for 15 days) was “the best effect”.

In the case of CC(=O)O[C@H]1C(=O)[C@@]2(C)[C@H]([C@H](OC(=O)c3ccccc3)[C@]3(O)C[C@H](OC(=O)[C@H](O)[C@@H](NC(=O)c4ccccc4)c4ccccc4)C(C)=C1C3(C)C)[C@]1(OC(C)=O)CO[C@@H]1C[C@@H]2O [Taxol, reference compound], the “A570 nm/A630 nm” value [3] is reported as 0.5996 ± 0.0139, the “PI (%)” value [3] is reported as 52.15% and the “A570 nm/A630 nm” value [4] is reported as 0.6011 ± 0.0148. The “PI (%)” value [4] was 50.81%, the “A570 nm/A630 nm” value (lung cancer cell A549) was 0.4269 and the “PI (%)” value (lung cancer cell A549) was 55.93%. The “A570 nm/A630 nm” value (liver cancer cell Hep-G2) was 0.3258, the “PI (%)” value (liver cancer cell Hep-G2) was 52.42% and the “A570 nm/A630 nm” value [5] was 0.4156 ± 0.0287. For the same molecule, the “A570 nm/A630 nm” value [6] was 0.4103 ± 0.0287, the “PI (%)” value [6] was 53.39% and the “A570 nm/A630 nm” value (human glioma U87) was 0.2177 ± 0.0277. For the same molecule, the “PI (%)” value (human glioma U87) was 68.90%, the “A570 nm/A630 nm” value [7] was 0.2114 ± 0.0275 and the “PI (%)” value [7] was 73.55%. For the same molecule, the “A570 nm/A630 nm” value [8] was 0.2387 ± 0.0257 and the PI [8] was 82.28%.

CC(=O)Oc1ccccc1C(=O)O [aspirin, reference compound] gave a Swelling degree ([9]; 2 h after xylene, mice) of 3.12 ± 0.34 mg and a PI ([9]; ear swelling vs control) of 53.08%.
